Data from ChEMBL document CHEMBL5113524, “Substrates and Inhibitors of the Organic Cation Transporter 3 and Comparison with OCT1 and OCT2” (J Med Chem, 2022).

Columns and labels:
OCT3 (SLC22A3) [1] = target: T1, OCT3 (SLC22A3) (Homo sapiens, UniProt O75751); assay: Substrate activity at human OCT3 overexpressed in HEK293 cells assessed as uptake ratio incubated for 2 mins by LC-MS/MS analysis; type: ADME, cell-based; settings: HEK293 cells overexpressing OCT3
T1 sequence (O75751 whole entry): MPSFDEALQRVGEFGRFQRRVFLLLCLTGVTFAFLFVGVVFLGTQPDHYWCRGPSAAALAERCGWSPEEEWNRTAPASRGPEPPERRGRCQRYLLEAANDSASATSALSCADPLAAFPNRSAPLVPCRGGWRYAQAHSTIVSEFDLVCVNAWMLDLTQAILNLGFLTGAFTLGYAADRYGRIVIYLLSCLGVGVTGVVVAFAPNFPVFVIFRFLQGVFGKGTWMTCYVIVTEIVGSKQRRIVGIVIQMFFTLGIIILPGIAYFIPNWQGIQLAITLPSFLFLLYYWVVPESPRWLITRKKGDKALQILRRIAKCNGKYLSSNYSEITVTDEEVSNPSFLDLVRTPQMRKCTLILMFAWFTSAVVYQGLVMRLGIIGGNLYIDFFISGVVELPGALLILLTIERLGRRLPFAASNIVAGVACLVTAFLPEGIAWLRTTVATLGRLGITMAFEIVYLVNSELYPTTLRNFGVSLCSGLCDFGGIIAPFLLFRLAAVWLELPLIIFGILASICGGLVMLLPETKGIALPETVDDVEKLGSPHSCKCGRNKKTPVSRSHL

OCT1 = OCT1 (Homo sapiens, UniProt O15245); assay: Substrate activity at OCT1 (unknown origin) assessed as uptake ratio; type: ADME, cell-based; settings: HEK293 cells
OCT2 = OCT2 (Homo sapiens, UniProt O15244); assay: Substrate activity at human OCT2 overexpressed in HEK293 cells assessed as uptake ratio incubated for 2 mins by LC-MS/MS analysis; type: ADME, cell-based; settings: HEK293 cells overexpressing OCT2
[2] = target: T2, Solute carrier family 22 member 3 (Homo sapiens, UniProt O75751); assay: (§1) Inhibition of human OCT3 overexpressed in HEK293 cells assessed as intracellularly accumulation of ASP+ at 20 uM incubated for 5 mins by HPLC-MS/MS analysis relative to control; type: cell-based; settings: hek293, 5 min, 20 µM
T2 sequence (O75751 whole entry): T1 sequence (O75751 whole entry)

OCT3 (SLC22A3) [3] = target: T1, OCT3 (SLC22A3); assay: Inhibition of human OCT3 mediated methylscopolamine uptake overexpressed in HEK293 cells at 20 uM incubated for 5 mins by HPLC-MS/MS analysis relative to control; type: cell-based; settings: HEK293 cells overexpressing OCT3, probe methylscopolamine
OCT3 (SLC22A3) [4] = target: T1, OCT3 (SLC22A3); assay: Inhibition of human OCT3 mediated (S,S)-Ethambutol uptake overexpressed in HEK293 cells at 20 uM incubated for 5 mins by HPLC-MS/MS analysis relative to control; type: cell-based; settings: HEK293 cells overexpressing OCT3, probe (S,S)-Ethambutol
OCT3 (SLC22A3) [5] = target: T1, OCT3 (SLC22A3); assay: Inhibition of human OCT3 mediated ASP+ uptake overexpressed in HEK293 cells at 20 uM incubated for 5 mins by HPLC-MS/MS analysis relative to control; type: cell-based; settings: HEK293 cells overexpressing OCT3, probe ASP+
OCT3 (SLC22A3) [6] = target: T1, OCT3 (SLC22A3); assay: Inhibition of human OCT3 mediated Famotidine uptake overexpressed in HEK293 cells at 20 uM incubated for 5 mins by HPLC-MS/MS analysis relative to control; type: cell-based; settings: HEK293 cells overexpressing OCT3, probe Famotidine
OCT3 (SLC22A3) [7] = target: T1, OCT3 (SLC22A3); assay: Inhibition of OCT3 (unknown origin) overexpressed in HEK293 cells assessed as intracellular accumulation of ASP+ incubated for 2 mins by Analyst AD plate reader method relative to control; type: cell-based; parameters: concentration or dose not given beside the values; settings: HEK293 cells overexpressing OCT3, probe ASP+
OCT3 (SLC22A3) [8] = target: T1, OCT3 (SLC22A3); assay: as §1; type: cell-based; settings: HEK293 cells overexpressing OCT3, probe ASP+
OCT3 (SLC22A3) [9] = target: T1, OCT3 (SLC22A3); assay: Inhibition of human OCT3 mediated N-Ethyllidocaine uptake overexpressed in HEK293 cells at 20 uM incubated for 5 mins by HPLC-MS/MS analysis relative to control; type: cell-based; settings: HEK293 cells overexpressing OCT3, probe N-Ethyllidocaine
[10] = target: Solute carrier family 22 member 2 (Homo sapiens) (UniProt O15244); assay: Inhibition of OCT2 mediated (unknown origin) assessed as intracellular accumulation of ASP+ relative to control
Chain of Solute carrier family 22 member 2 (Homo sapiens) (O15244 whole entry, looked up): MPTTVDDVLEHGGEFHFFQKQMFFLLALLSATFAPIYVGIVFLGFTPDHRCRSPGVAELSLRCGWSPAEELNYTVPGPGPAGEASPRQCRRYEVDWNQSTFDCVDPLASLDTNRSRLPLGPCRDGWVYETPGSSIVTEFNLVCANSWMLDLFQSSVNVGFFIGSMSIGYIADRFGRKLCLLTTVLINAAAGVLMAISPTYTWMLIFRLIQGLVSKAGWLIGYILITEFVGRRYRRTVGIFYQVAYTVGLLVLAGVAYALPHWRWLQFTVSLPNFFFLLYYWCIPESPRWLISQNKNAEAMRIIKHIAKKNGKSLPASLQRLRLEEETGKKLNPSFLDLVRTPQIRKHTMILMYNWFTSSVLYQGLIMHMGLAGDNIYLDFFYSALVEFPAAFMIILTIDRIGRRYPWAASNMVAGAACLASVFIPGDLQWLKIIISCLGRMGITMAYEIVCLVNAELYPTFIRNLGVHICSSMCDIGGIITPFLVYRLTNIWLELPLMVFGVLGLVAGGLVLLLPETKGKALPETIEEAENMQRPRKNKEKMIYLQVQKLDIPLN

Chain of OCT1 (O15245 whole entry, looked up): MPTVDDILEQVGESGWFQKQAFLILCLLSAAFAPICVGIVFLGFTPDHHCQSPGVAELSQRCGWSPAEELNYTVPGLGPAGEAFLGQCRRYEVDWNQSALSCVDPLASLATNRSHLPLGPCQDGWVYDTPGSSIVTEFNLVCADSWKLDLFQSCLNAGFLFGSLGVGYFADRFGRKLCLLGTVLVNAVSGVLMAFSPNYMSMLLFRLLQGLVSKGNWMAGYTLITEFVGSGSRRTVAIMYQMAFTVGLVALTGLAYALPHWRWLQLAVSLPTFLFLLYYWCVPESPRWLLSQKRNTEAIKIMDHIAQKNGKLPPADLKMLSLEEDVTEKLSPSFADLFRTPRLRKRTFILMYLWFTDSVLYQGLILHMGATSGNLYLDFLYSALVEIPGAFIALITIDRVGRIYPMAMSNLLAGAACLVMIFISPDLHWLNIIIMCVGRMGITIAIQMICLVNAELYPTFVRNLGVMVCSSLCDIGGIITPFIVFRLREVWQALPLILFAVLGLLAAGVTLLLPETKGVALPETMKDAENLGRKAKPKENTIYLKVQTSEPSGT
Chain of OCT2 (O15244 whole entry, looked up): as the sequence (O15244 whole entry, looked up) above

CN[C@@H]1CCc2[nH]c3ccc(C(N)=O)cc3c2C1 [FROVATRIPTAN] was tested, and the uptake ratio at 2 min (OCT3 (SLC22A3) [1]) was 7.7, the uptake ratio (OCT1) was 30.3 and the uptake ratio at 2 min (OCT2) was 10.8.

CCC(NC(C)C)C(O)c1ccc(O)c(O)c1 (stereo unspecified) [ISOETHARINE] was tested, and the uptake ratio at 2 min (OCT3 (SLC22A3) [1]) was 23.3.

With C[N+]1(CCC(C(N)=O)(c2ccccc2)c2ccccc2)CCCCC1 the “inhibition (INH)” value [2] was “Active”.

CC[N+](CC)(CC)CC(=O)Nc1c(C)cccc1C gave an uptake ratio at 2 min (OCT3 (SLC22A3) [1]) of 50, an inhibition at 5 min, 20 µM (OCT3 (SLC22A3) [3]) of 15% and an inhibition at 5 min, 20 µM (OCT3 (SLC22A3) [4]) of 44%. The inhibition at 5 min, 20 µM (OCT3 (SLC22A3) [5]) was 16% and the inhibition at 5 min, 20 µM (OCT3 (SLC22A3) [6]) was 52%.

Work on Cc1cc(N)c2ccccc2[n+]1CCCCCCCCCC[n+]1c(C)cc(N)c2ccccc21 yielded an inhibition at 2 min (OCT3 (SLC22A3) [7]) of 66.6%.

Molecule C[N+]1(C)CCN(c2ccccc2)CC1 [DIMETHYLPHENYLPIPERAZINIUM] has an uptake ratio at 2 min (OCT3 (SLC22A3) [1]) of 46.

With N=C(N)N1Cc2ccccc2C(O)C1 (stereo unspecified) the uptake ratio at 2 min (OCT3 (SLC22A3) [1]) was 38.

CN(C)CCC=C1c2ccccc2CCc2ccccc21 [AMITRIPTYLINE] showed an inhibition at 5 min, 20 µM (OCT3 (SLC22A3) [8]) of 80%.

C[N+]1(CC2CC2)CC[C@]23c4c5ccc(O)c4O[C@H]2C(=O)CC[C@@]3(O)[C@H]1C5 (stereo partly specified) [METHYLNALTREXONE] showed an uptake ratio at 2 min (OCT3 (SLC22A3) [1]) of 102.

C[N+]1(C)[C@@H]2C[C@H](OC(=O)[C@H](CO)c3ccccc3)C[C@H]1[C@@H]1O[C@@H]12 showed an inhibition at 5 min, 20 µM (OCT3 (SLC22A3) [9]) of 21%, an inhibition at 5 min, 20 µM (OCT3 (SLC22A3) [4]) of 27% and an inhibition at 5 min, 20 µM (OCT3 (SLC22A3) [5]) of 0%. The inhibition at 5 min, 20 µM (OCT3 (SLC22A3) [6]) was 40%.

With CN(C)CCC=C1c2ccccc2CC(O)c2ccccc21 (stereo unspecified) the inhibition at 5 min, 20 µM (OCT3 (SLC22A3) [8]) was 79.3%.

In the case of CCCCC(CC)CNC(=N)NC(=N)NCCCCCCNC(=N)NC(=N)NCC(CC)CCCC (stereo unspecified) [ALEXIDINE], the inhibition at 2 min (OCT3 (SLC22A3) [7]) is reported as 98.1% and the inhibition at 5 min, 20 µM (OCT3 (SLC22A3) [8]) is reported as 103%.

Work on CN(C)CCc1c[nH]c2ccc(Cn3cncn3)cc12 [RIZATRIPTAN] yielded an uptake ratio at 2 min (OCT3 (SLC22A3) [1]) of 2.4, an uptake ratio (OCT1) of 4.3 and an uptake ratio at 2 min (OCT2) of 4.1.

CNCCC=C1c2ccccc2CCc2ccccc21 [NORTRIPTYLINE] was tested, and the inhibition at 5 min, 20 µM (OCT3 (SLC22A3) [8]) was 80%.

CC[C@@H](CO)NCCN[C@@H](CC)CO [ETHAMBUTOL] was tested, and the inhibition at 5 min, 20 µM (OCT3 (SLC22A3) [9]) was -7%, the inhibition at 5 min, 20 µM (OCT3 (SLC22A3) [3]) was -13% and the inhibition at 5 min, 20 µM (OCT3 (SLC22A3) [5]) was 7%. The inhibition at 5 min, 20 µM (OCT3 (SLC22A3) [6]) was -1%.

CN(C)CCc1c[nH]c2ccc(C[C@H]3COC(=O)N3)cc12 [ZOLMITRIPTAN] gave an uptake ratio at 2 min (OCT3 (SLC22A3) [1]) of 22, an uptake ratio (OCT1) of 9.3 and an uptake ratio at 2 min (OCT2) of 1.2.

Cc1nc2n(c(=O)c1CCN1CCC(c3noc4cc(F)ccc34)CC1)CCCC2O (stereo unspecified) [PALIPERIDONE] was tested, and the inhibition at 5 min, 20 µM (OCT3 (SLC22A3) [8]) was 87.7%.

COc1ccc2[nH]cc(CCN)c2c1 [5-METHOXYTRYPTAMINE] showed an uptake ratio at 2 min (OCT3 (SLC22A3) [1]) of 2.2, an uptake ratio (OCT1) of 3.8 and an uptake ratio at 2 min (OCT2) of 7.1.

With CC(=O)S[C@@H]1CC2=CC(=O)CC[C@]2(C)[C@H]2CC[C@@]3(C)[C@@H](CC[C@@]34CCC(=O)O4)[C@H]12 [SPIRONOLACTONE] the inhibition [10] was 84.2% and the inhibition at 5 min, 20 µM (OCT3 (SLC22A3) [8]) was 93.9%.

Molecule [H]/N=C(/N)N/C(=N/[H])NCCc1ccccc1 [PHENFORMIN] has an uptake ratio at 2 min (OCT3 (SLC22A3) [1]) of 32.2.

With C[C@@H](Oc1cc(-c2cnn(C3CCNCC3)c2)cnc1N)c1c(Cl)ccc(F)c1Cl [CRIZOTINIB] the inhibition at 5 min, 20 µM (OCT3 (SLC22A3) [8]) was 90.4%.

For CN(C)c1ccc(C(=C2C=CC(=[N+](C)C)C=C2)c2ccc(N(C)C)cc2)cc1 [GENTIAN VIOLET], the inhibition [10] was 116%, the inhibition at 2 min (OCT3 (SLC22A3) [7]) was 107% and the inhibition at 5 min, 20 µM (OCT3 (SLC22A3) [8]) was 81.4%.

Molecule CC(C)(C)NCC(O)c1ccc(O)c(O)c1 (stereo unspecified) [COLTEROL] has an uptake ratio at 2 min (OCT3 (SLC22A3) [1]) of 53.

Cc1ccc(O)c([C@H](CCN(C(C)C)C(C)C)c2ccccc2)c1 [TOLTERODINE] was tested, and the inhibition at 5 min, 20 µM (OCT3 (SLC22A3) [8]) was 96.1%.

Molecule N=C(NCCCCCCNC(=N)NC(=N)Nc1ccc(Cl)cc1)NC(=N)Nc1ccc(Cl)cc1 has an inhibition [10] of 105%.

CN(C)c1ccc(/C=C/c2cc[n+](C)cc2)cc1 was tested, and the inhibition at 5 min, 20 µM (OCT3 (SLC22A3) [9]) was 70%, the inhibition at 5 min, 20 µM (OCT3 (SLC22A3) [3]) was 58% and the inhibition at 5 min, 20 µM (OCT3 (SLC22A3) [4]) was 51%. For the same molecule, the inhibition at 5 min, 20 µM (OCT3 (SLC22A3) [6]) was 63%.

[H]/N=C(\N/C(=N/[H])NCCCCCCNC(=N)NC(=N)Nc1ccc(Cl)cc1)Nc1ccc(Cl)cc1 [CHLORHEXIDINE] gave an inhibition at 2 min (OCT3 (SLC22A3) [7]) of 98.4% and an inhibition at 5 min, 20 µM (OCT3 (SLC22A3) [8]) of 98.4%.

With O=C(O[C@H]1C[C@H]2CC[C@@H](C1)[N+]21CCCC1)C(O)(c1ccccc1)c1ccccc1 [TROSPIUM] the “inhibition (INH)” value [2] was “Active”.

Work on CC(C)[N+]1(C)[C@@H]2CC[C@H]1C[C@@H](OC(=O)C(CO)c1ccccc1)C2 (stereo partly specified) [IPRATROPIUM] yielded an inhibition at 2 min (OCT3 (SLC22A3) [7]) of 47.8% and an inhibition at 5 min, 20 µM (OCT3 (SLC22A3) [8]) of 79.1%.

CNCC/C=C1\c2ccccc2CC(O)c2ccccc21 (stereo unspecified) gave an inhibition at 5 min, 20 µM (OCT3 (SLC22A3) [8]) of 86.7%.

With C[N+]1(C)[C@@H]2C[C@H](OC(=O)C(O)(c3cccs3)c3cccs3)C[C@H]1[C@@H]1O[C@@H]12 the uptake ratio at 2 min (OCT3 (SLC22A3) [1]) was 50.

In the case of CC[N+](CC)(CC)Cc1ccccc1, the uptake ratio at 2 min (OCT3 (SLC22A3) [1]) is reported as 62.5, the inhibition at 5 min, 20 µM (OCT3 (SLC22A3) [3]) is reported as 49% and the inhibition at 5 min, 20 µM (OCT3 (SLC22A3) [5]) is reported as 5%.
